Broadly, the pKi is the negative decadic logarithm of the Ki, by convention in mol/L. In general, Emax refers to the greatest response seen or fitted, relative to the assay's reference. What is called pEC50 is −log10 of the EC50, conventionally taken in molar units.

One assay concerns the target T1, κOR (Homo sapiens, UniProt P41145).
T1 construct: expressed in transfected cells; host or cells: HEK 293T cells, transient transfection, membrane preparation
The assay is described as follows: competitive radioligand binding with [3H]diprenorphine, membranes of transfected HEK 293T cells. The following applies: radioligand [3H]diprenorphine; number in brackets = number of experiments; read-out: mean Ki value κOR. As for the experimental part:
(§1) To verify the subtype selectivity of the described compounds for µOR over δOP and κOR, respectively, the binding affinities of the described examples to the different human opioid receptors in an in-vitro test system were measured.
After preparation of membranes, radioligand displacement assays were run in 96-well format at a final volume of 200 µL in binding buffer (50 mM Tris-HCI, 1 mM EDTA, 5 mM MgCl2, 100 µg/mL bacitracin, 5 µg/mL soybean trypsin inhibitor, pH 7.4) with the radioligand [^3H]diprenorphine (specific activity = 31 Ci/mmol) at a final concentration of 0.20-0.30 nM. […] Unspecific binding was determined in the presence of 10 µM of the naloxone. […] The resulting competition curves of the receptor binding experiments were analyzed by nonlinear regression. […] Three to seven experiments per compound were performed, with each concentration in triplicate.

Another assay concerns the target T2, δOR (Homo sapiens, UniProt P41143).
T2 construct: expressed in transfected cells; host or cells: HEK 293T cells, transient transfection, membrane preparation
Described as above. On the procedure: as §1
(§2) For the determination of receptor binding affinity competitive radioligand binding experiments were performed as described in literature (H. Huebner, C. Haubmann, W. Utz, P. Gmeiner, J. Med. Chem., 2000, 43, 756-762). In brief, HEK 293T cells were transiently transfected with the cDNAs coding for the human opioid receptor subtypes µOR, δOR, and kOR, respectively, using a solution of polyethylenimine in PBS (PEI, linear, 25 kDa, Polysciences) as transfection reagent at a 3:1 PEI to cDNA ratio (I. Fish, A. Stoessel, K. Eitel, C. Valant, S. Albold, H. Huebner, D. Moeller, M.J. Clark, R.K. Sunahara, A. Christopoulos, B.K. Shoichet, P. Gmeiner, J. Med. Chem., 2017, 60, 9239-9250). After preparation of membranes, radioligand displacement assays were run in 96-well format at a final volume of 200 µL in binding buffer (50 mM Tris-HCI, 1 mM EDTA, 5 mM MgCl2, 100 µg/mL bacitracin, 5 µg/mL soybean trypsin inhibitor, pH 7.4) with the radioligand [^3H]diprenorphine (specific activity = 31 Ci/mmol) at a final concentration of 0.20-0.30 nM. […] Unspecific binding was determined in the presence of 10 µM of the naloxone. Protein concentrations were determined employing the method of Lowry with bovine serum albumin as standard (O.H. Lowry, N.J. Rosebrough, A.L. Farr, R.J. Randall, J. Biol. Chem., 1951, 193, 265-275). The resulting competition curves of the receptor binding experiments were analyzed by nonlinear regression. The data were initially fit using a sigmoid model to provide IC50 values, which were subsequently transformed to Ki values according to the equation of Cheng and Prusoff (Y.-C. Cheng, W. H. Prusoff, Biochem. Pharmacol., 1973, 22, 3099-3108). Three to seven experiments per compound were performed, with each concentration in triplicate.

Assay [1] concerns the target T3, µOR (Homo sapiens, UniProt P35372). In words: β-arrestin-2 recruitment, enzyme-fragment complementation assay in HEK-293 cells. Format: cell-based. Further details: expressed in transfected cells; host or cells: HEK-293 cells stably expressing EA-tagged β-arrestin-2, transiently transfected with µOR-PK1. As for the experimental part: (§3) Functionally selective drugs, which are biased towards Gi protein activation over β-arrestin signaling at the µOR are indicated to show an improved side effect profile. Thus, the characterization of the functional properties of the described examples at the µOR were performed by determination of the ligand stimulated G-protein related signaling and β-arrestin recruitment applying cell based in-vitro test systems. Full and partial agonists as well as antagonists for G protein related signaling were identified.
Measurement of β-arrestin-2 recruitment was done applying an enzyme-fragment complementation assay as described previously (C. Gentzsch, K. Seier, A. Drakopoulos, M.-L. Jobin, Y. Lanoiselee, Z. Koszegi, D. Maurel, R. Sounier, H. Huebner, P. Gmeiner, S. Granier, D. Calebiro, M. Decker. Ang. Chem. Int. Ed. 2020, 59, 2-9. J. Hellmann, M. Drabek, J. Yin, J. Gunera, T. Proell, F. Kraus, C.J. Langmead, H. Huebner, D. Weikert, P. Kolb, D.M. Rosenbaum, P. Gmeiner. PNAS 2020, 117, 18059-18067). In brief, HEK-293 cells stably expressing the enzyme acceptor (EA) tagged β-arrestin-2 fusion protein were transiently co-transfected with the ProLink tagged µOR-PK1 After 24 h cells were transferred into 384-well microplates and cultured for further 24 h. To start arrestin recruitment compounds were added to the cells to get a final concentration in a range of 10 pM to 100 µM. After incubation for 90 min reaction was stopped by addition of detection mix. Chemiluminescence was determined in duplicates (3-8 individual experiments for each compound in comparison to the reference agonist DAMGO). Data analysis was done as described above.
(§4) In the above table, the numbers indicate mean EC50 values in nM and Emax values relative to the full effect of reference agonist DAMGO [=100%], respectively and are derived from 3-9 individual experiments for G-protein signaling and 3-8 tests for arrestin recruitment. ND = not determined.
(In general: Arrestin recruitment assays detect the binding of arrestin to an activated receptor.)

For assay [2], the target named is T3, µOR. In words: G-protein mediated signaling, IP1 accumulation assay (HTRF) in HEK-293T cells with hybrid G-protein Gαqi. Also noted: expressed in transfected cells; host or cells: HEK-293T cells, transient transfection. The assay is classed as cell-based. On the procedure: as §3
The determination of G-protein stimulated µOR activation was measured applying an IP1 accumulation assay as described previously (J. Kruell, S.K. Fehler, L. Hofmann, N. Nebel, S. Maschauer, O. Prante, P. Gmeiner, H. Lanig, H. Huebner, M.R. Heinrich. ChemMedChem 2020, 15, 1175-1186. C. Gentzsch, K. Seier, A. Drakopoulos, M.-L. Jobin, Y. Lanoiselee, Z. Koszegi, D. Maurel, R. Sounier, H. Huebner, P. Gmeiner, S. Granier, D. Calebiro, M. Decker. Ang. Chem. Int. Ed. 2020, 59, 2-9). In brief, HEK-293T cells were grown to confluence of approximately 70% and transiently transfected with the cDNA of the human µOR receptor and the hybrid G-protein Gαqi. After one day cells were seeded into 384-well microplates. For testing cells were incubated with test compounds (final range of concentration from 1 pM up to 10 µM) for 180 min at 37 °C followed by addition of detection reagents. Time resolved fluorescence resonance energy transfer (HTRF) was determined using a microplate reader. Each compound was tested in duplicates in 3-9 individual experiments in comparison to the reference compound DAMGO. The resulting dose response curves were analyzed by nonlinear regression using the algorithms in PRISM 6.0 (GraphPad software, San Diego, CA), fitted with a sigmoid model and normalized to basal activity (0 %) and the maximal effect caused by the reference full agonist DAMGO (100 %).
as §4
(In general: In TR-FRET formats the signal depends on donor and acceptor labels being close together.)

Assay [3] has as its target T3, µOR. In words: competitive radioligand binding with [3H]diprenorphine, membranes of transfected HEK 293T cells. Further details: expressed in transfected cells; host or cells: HEK 293T cells, transient transfection, membrane preparation. As for the experimental part:
as §1, §2

pEC50, pKi: −log10 of the molar value.

As to `CN(C)[C@H](CNC(=O)/C=C/c1ccsc1)Cc1ccc(O)cc1` [Example 19, (S,E)-N-(2-(Dimethylamino)-3-(4-hydroxyphenyl)propyl)-3-(thiophen-3-yl)acrylamide], the pKi on κOR is 6.89; at δOR, 7.23; on µOR [3] it was 8.07. Further, the Emax was < 5% at µOR [1] (HEK293, relative to the full effect of reference agonist DAMGO [=100%]) and 53% at µOR [2] (HEK-293T, read-out: G-protein signaling Emax). For the same compound, the “β-arrestin recruitment EC50” value on µOR [1] (mean of 3-8 tests, 90 min incubation, CBA = could not be analyzed (no dose-response curve)) is reported as “CBA”. The compound also showed a pEC50 at µOR [2] of 8.12.

These data come from patent EP3964497A1, “SUBSTITUTED VICINAL DIAMINE COMPOUNDS AND THEIR USE IN THE TREATMENT, AMELIORATION OR PREVENTION OF PAIN” (priority 2020, dated 2022).
